Data set [1] has as its system CT26 tumors. Description: Growth inhibition of s.c. footpad CT26 tumors in CB6F1 mice by daily i.p. adenine nucleotides (Table 1). The class given is in vivo, mouse. To be noted: for Effectiveness of concentrations lower than 50 mM against CT26 footpad tumors: daily i.p. in volumes of 1.4-1.8 ml of saline, CB6F1 mice; for Effect of delaying start of treatment on tumor growth inhibition: start delayed until tumors palpable (6-10 days after inoculation); for Inhibition of tumor growth (% of saline-treated): 1 ml of 25 mM, based on tumor weights. As to the method: (§1) The tumor cell lines employed were CT26, a mouse undifferentiated, aggressive colon carcinoma, and CAPAN-1, a well-differentiated human pancreatic adenocarcinoma. […] The cells are shown to be free of Mycoplasma contamination. Cells are cultured at 37° C. in a humidified atmosphere of 5% CO2 /95% air in MEM supplemented with antibiotics (100 units of penicillin per ml and 100 μg streptomycin per ml), L-glutamine (2 mM), non-essential amino acids (0.1 mM), sodium pyruvate (1 mM), and 10% fetal bovine serum.
(§2) In the tests, females and males CB6F1 mice (a standard F1 hybrid of BALB/C and C57BL/6) obtained from Jackson Laboratories, Bar Harbor, Maine and athymic outbred NCr nu/nu mice (males and females) from the Department of Radiation Medicine, Massachusetts General Hospital, Boston, Mass. 02114 are used. All the mice are kept for at least two weeks before inoculation of the tumors and the start of treatment and are 7-9 weeks old (CB6F1) or 6-7 weeks old (athymic nu/nu) at the start of the procedure. Animals weigh 20-25 g (females) or 23-28 g (males), are housed 5-12 per cage, and have ad libitum access to food and water.
Tumor cells are removed from subconfluent cultures by a mild trypsin-EDTA treatment, the cell pellet is washed once with MEM without serum and the cells are suspended at the desired cell numbers in PBS (phosphate-bufferedsaline, 8 g NaCl, 0.2 g KCl, 1.15 g Na2 HPO4.7H2 O, and 0.2 g KH2 PO4 per liter). Cell suspensions are shown to be at least 90% viable by trypan blue exclusion. Mice are injected subcutaneously in the right hind footpad with tumor cells suspended in 50 μl of PBS. The regular protocol (unless otherwise stated) consists of daily i.p. injections of 1 ml of 0.85% NaCl solution or 1 ml of 50 mM of AMP, ADP, or ATP in 0.85% NaCl (from stock solutions adjusted to pH 6.2) starting one day after tumor inoculation and given for ten consecutive days.
Injections are administered with 30 gauge needles and the mice are lightly anesthetized with ether. The mice are weighed before the start of treatment and once a week during and after treatment. After the tumors become palpable, tumor sizes are determined every three days. The animals are sacrificed, tumors are excised and weighed before they reach 10% of the animals' weight.
The growth inhibitory properties of adenine nucleotides against CT26 murine colon carcinoma, which are inoculated s.c. in the hind footpad of CB6F1 mice, are illustrated in Table 1 hereinbelow. […] No significant differences between males and females are observed either in the rate of tumor growth or in the tumor's response to adenine nucleotides treatment.

Data set [2] concerns CT26 tumors. The data set is described as follows: Arrest of growth of CT26 tumors in CB6F1 mice (Table 2). The class given is in vivo, mouse. To be noted: experiment 1; CB6F1, 10 F; 0.5 × 10^4 cells; 5 weeks; 1 ml of 50 mM i.p. As to the method:
as §1
as §2, with “water. […]” for “water.”
Injections are administered with 30 gauge needles and the mice are lightly anesthetized with ether. […] After the tumors become palpable, tumor sizes are determined every three days. […]

Another data set relates to RBC ATP pools. The data set is described as follows: Stability of expanded RBC ATP pools in washed isolated RBCs in vitro after i.p. injection (Table 5). To be noted: average of two experiments; for Medium (Hanks' BSS) [^3 H]ATP levels immediately after [^3 H]adenosine incorporation into isolated, washed RBCs (at time 0) / ATP levels in the medium (Hanks' BSS): time 0; for ATP levels in the medium (Hanks' BSS): bioluminometry; for RBC ATP pools (37° C.), 0 min / RBC ATP pools (37° C.), 120 min: washed RBCs in Hanks' BSS. Details: species or system mouse. The method, then: The mice are anesthetized with ether during the procedure. Plasma or Hanks' (Balanced Salt Solution) BSS media from incubated isolated RBCs (Red Blood Cells) are prepared by centrifugation of whole blood or RBCs in a Beckman microfuge (30 seconds at 8000 xg) and samples of 100 μl are added to 1 ml of ice-cold 7% trichloroacetic acid. Red blood cells are prepared by centrifugation of whole blood (1500 xg for 5 minutes at 4° C.) and removal of plasma and the buffy coat is followed by a wash of the pelleted RBCs (from 250 μl of whole blood) in 5 ml of ice-cold Hanks' BSS. After centrifugations, the RBCs pellet is resuspended in Hanks' BSS to yield a total volume with the original hematocrit (percent of RBCs volume in the whole blood). Aliquots of 20 μl of RBCs suspensions or whole blood are added to 1 ml of ice-cold 7% trichloroacetic acid. Extraction of acid-soluble nucleotides and determinations of ATP levels by luminometry followed procedures discussed hereinabove. Levels of [^3 H]ATP in whole blood, RBCs, plasma, or RBCs incubation media (Hanks' BSS) are determined after incorporation of 250 μCi of [^3 H]adenosine of specific radioactivity of 30 Ci/mmol (1 Ci=3.7×10^10 becquerels) into whole blood or RBC suspensions (250 μl total) followed by immediate trichloroacetic acid extractions as described above. Two dimensional thin layer chromatography on poly(ethylene)imine cellulose with an unlabeled ATP carrier is performed according to Bochner and Ames, J. Biol. Chem., 257, pp. 9759-9769, 1982). For the determination of whole blood or isolated RBC [^3 H]ATP pools, 10 μl of a 1 ml initial trichloroacetic acid extract are chromatographed. Determinations of [^3 H]ATP levels in blood plasma or RBCs incubation media are performed on 300 μl of an initial 1 ml trichloroacetic acid extract which are lyophilized and redissolved in 15 μl of water. After chromatography, the spots corresponding to the ATP carrier are cut, eluted with 0.5 ml of 4 N ammonium hydroxide, and radioactivity determined in 10 ml of scintillation fluid.
Two hour incubations of washed isolated RBCs containing normal or expanded ATP pools in Hanks' BSS result in relatively small decreases in RBC ATP pools with the expanded pools being maintained well above normal levels (Table 5). The expansions of RBC ATP pools after i.p. administration of AMP or ATP in vivo is presumably the result of their dephosphorylation followed by the RBCs uptake of the adenosine which is generated in situ.

[3] abbreviates: experiment 3, 12 M per group, 0.5 × 10^6 cells, day 13, 1 ml of 50 mM i.p. daily.
Setting [4] is: experiment 4, 11 F per group, 0.5 × 10^6 cells, day 14, 1 ml of 50 mM i.p. daily.
[5] abbreviates: experiment 5, 12 F per group, 0.5 × 10^5 cells, day 16, 1 ml of 50 mM i.p. daily.
Where [6] appears, read: experiment 6, 10 F per group, 0.5 × 10^5 cells, day 18, 1 ml of 50 mM i.p. daily (Ap4A 10 mM).
The mark [7] stands for this setting: experiment 7, 10 F per group, 0.1 × 10^5 cells, day 22, 1 ml of 50 mM i.p. daily.
The mark [8] stands for this setting: experiment 7, 10 F per group, 0.1 × 10^5 cells, day 22, 1 ml of 50 mM i.p. daily, included one complete cure.
The mark [9] stands for this setting: experiment 1, 10 F per group, 0.5 × 10^6 cells, day 15, 1 ml of 25 mM i.p. daily.
Setting [10] is: experiment 2, 10 M per group, 0.5 × 10^6 cells, day 15, 1 ml of 25 mM i.p. daily.

Here are results for 2 compounds from patent US5049372A, “Anticancer activities in a host by increasing blood and plasma adenosine 5'-triphosphate (ATP) levels” (priority 1988, dated 1991).

Turning to `Nc1ncnc2c1ncn2[C@@H]1O[C@H](COP(=O)(O)O)[C@@H](O)[C@H]1O` [AMP, adenosine 5'-monophosphate], in the data set with CT26 tumors [1], the “Effectiveness of concentrations lower than 50 mM against CT26 footpad tumors” value was “as effective”, the “Most effective pH of the i.p. solution for inhibition of tumor growth” value is reported as 5.5-6.2 and the “Effect of delaying start of treatment on tumor growth inhibition” value is listed as “without any significant effects on the magnitude of tumor growth inhibition”. Moreover, in the data set with CT26 tumors [1] (setting [3]), the Tumor diameter was determined as 1.2 ± 0.2 cm and the Tumor weight worked out at 0.65 ± 0.21 g. In the data set on CT26 tumors [1] (setting [4]), this compound registered a Tumor diameter of 1.0 ± 0.3 cm and a Tumor weight of 0.88 ± 0.31 g. In the data set on CT26 tumors [1] (setting [5]), this compound gave a Tumor diameter of 0.6 ± 0.2 cm and a Tumor weight of 0.41 ± 0.18 g. In the data set with CT26 tumors [1] (setting [6]), this compound came in with a Tumor diameter of 0.8 ± 0.2 cm and a Tumor weight of 0.56 ± 0.21 g. The compound also displayed a Tumor diameter in the data set with CT26 tumors [1] (setting [7]) of 0.9 ± 0.5 cm. The same compound displayed a Tumor weight in the data set on CT26 tumors [1] (setting [8]) of 0.51 ± 0.28 g. Further, the Arrested tumors/implanted tumors in the data set on CT26 tumors [2] is recorded as 2/10. Moreover, in the data set on RBC ATP pools, the “Medium (Hanks' BSS) [^3 H]ATP levels immediately after [^3 H]adenosine incorporation into isolated, washed RBCs (at time 0)” value was determined as 1.81 µM; the “ATP levels in the medium (Hanks' BSS)” value was 2.42 µM; the “RBC ATP pools (37° C.), 0 min” value is on record as 1.01 mM; the “RBC ATP pools (37° C.), 120 min” value is given as 0.86 mM.

Consider `Nc1ncnc2c1ncn2[C@@H]1O[C@H](COP(=O)(O)OP(=O)(O)OP(=O)(O)O)[C@@H](O)[C@H]1O` [ATP, adenosine 5'-triphosphate], for which the “Effectiveness of concentrations lower than 50 mM against CT26 footpad tumors” value in the data set with CT26 tumors [1] is on record as “as effective”. Moreover, the Tumor diameter in the data set on CT26 tumors [1] (setting [9]) is recorded as 1.3 ± 0.2 cm; in the data set on CT26 tumors [1] (setting [10]), 1.4 ± 0.2 cm; in the data set with CT26 tumors [1] (setting [3]), 1.2 ± 0.2 cm; in the data set on CT26 tumors [1] (setting [4]) it was 1.0 ± 0.2 cm; in the data set on CT26 tumors [1] (setting [5]), 0.5 ± 0.1 cm; in the data set with CT26 tumors [1] (setting [6]), 0.8 ± 0.1 cm. The Tumor diameter in the data set on CT26 tumors [1] (setting [7]) turned out to be 0.9 ± 0.5 cm. Moreover, the Tumor weight with CT26 tumors [1] (setting [9]) amounted to 1.34 ± 0.33 g; in the data set on CT26 tumors [1] (setting [10]), 1.30 ± 0.29 g; with CT26 tumors [1] (setting [3]), 0.70 ± 0.18 g; with CT26 tumors [1] (setting [4]) it was 0.84 ± 0.23 g; with CT26 tumors [1] (setting [5]), 0.38 ± 0.10 g; in the data set with CT26 tumors [1] (setting [6]) it was 0.51 ± 0.18 g. In the data set with CT26 tumors [1] (setting [8]), this compound yielded a Tumor weight of 0.68 ± 0.36 g. Also, the “Inhibition of tumor growth (% of saline-treated)” value in the data set on CT26 tumors [1] (experiment 1, 10 F per group, 0.5 × 10^6 cells, day 15) was found to be 31%; in the data set with CT26 tumors [1] (experiment 2, 10 M per group, 0.5 × 10^6 cells, day 15), 30%. Further, in the data set on CT26 tumors [1], the “Most effective pH of the i.p. solution for inhibition of tumor growth” value is recorded as 5.5-6.2. Moreover, the “Effect of delaying start of treatment on tumor growth inhibition” value with CT26 tumors [1] is recorded as “without any significant effects on the magnitude of tumor growth inhibition”. In addition, the Arrested tumors/implanted tumors in the data set on CT26 tumors [2] is listed as 4/10. In addition, the “Medium (Hanks' BSS) [^3 H]ATP levels immediately after [^3 H]adenosine incorporation into isolated, washed RBCs (at time 0)” value in the data set with RBC ATP pools was determined as 4.93 µM. The “ATP levels in the medium (Hanks' BSS)” value in the data set with RBC ATP pools came out at 4.08 µM. The “RBC ATP pools (37° C.), 0 min” value in the data set on RBC ATP pools is 2.52 mM. For the same compound, the “RBC ATP pools (37° C.), 120 min” value in the data set with RBC ATP pools was 1.76 mM.
